Measured values reported in PubChem BioAssay AID248 (DTP/NCI, 2004).
Values joined by “and” are separate entries in the source; they are usually repeats but may differ in a detail not shown here. Equal entries are not always repeated. Inconclusive results and toxic doses are left out. Rule as the data show it: active = T/C of 150% or more; inactive = T/C below 125%.

Test system: L1210 leukemia ip in BDF1 mice, survival T/C
Assay: NCI In Vivo Anticancer Drug Screen. Data for tumor model L1210 Leukemia (intraperitoneal) in B6D2F1 (BDF1) mice
Settings: endpoint: mean survival time, higher = longer survival
In short: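 Tumor was transplanted into mice, which were then dosed with test compound or vehicle alone. Survival was recorded for each group, and the treated figure was expressed relative to the control figure.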

[1] = dose: 100.0 mg/kg/injection, schedule: Q04DX002 (ip), vehicle: Klucel (hydroxypropylcellulose) (HPC)
[2] = dose: 200.0 mg/kg/injection, schedule: Q04DX002 (ip), vehicle: Klucel (hydroxypropylcellulose) (HPC)
[3] = dose: 400.0 mg/kg/injection, schedule: Q04DX002 (ip), vehicle: Klucel (hydroxypropylcellulose) (HPC)
[4] = dose: 100.0 mg/kg/injection, schedule: Q01DX001 (ip), vehicle: other
[5] = dose: 200.0 mg/kg/injection, schedule: Q01DX001 (ip), vehicle: other
[6] = dose: 400.0 mg/kg/injection, schedule: Q01DX001 (ip), vehicle: other
[7] = dose: 100.0 mg/kg/injection, schedule: Q01DX009 (ip), vehicle: Klucel (hydroxypropylcellulose) (HPC)
[8] = dose: 100.0 mg/kg/injection, schedule: Q04DX003 (ip), vehicle: acetone
[9] = dose: 200.0 mg/kg/injection, schedule: Q01DX009 (ip), vehicle: Klucel (hydroxypropylcellulose) (HPC)
[10] = dose: 400.0 mg/kg/injection, schedule: Q01DX009 (ip), vehicle: Klucel (hydroxypropylcellulose) (HPC)
[11] = dose: 50.0 mg/kg/injection, schedule: Q01DX009 (ip), vehicle: saline
[12] = dose: 100.0 mg/kg/injection, schedule: Q01DX009 (ip), vehicle: saline
[13] = dose: 100.0 mg/kg/injection, schedule: Q04DX003 (ip), vehicle: Klucel (hydroxypropylcellulose) (HPC)
[14] = dose: 200.0 mg/kg/injection, schedule: Q04DX003 (ip), vehicle: Klucel (hydroxypropylcellulose) (HPC)
[15] = dose: 400.0 mg/kg/injection, schedule: Q04DX003 (ip), vehicle: Klucel (hydroxypropylcellulose) (HPC)
[16] = dose: 100.0 mg/kg/injection, schedule: Q01DX001 (ip), vehicle: saline
[17] = dose: 200.0 mg/kg/injection, schedule: Q01DX001 (ip), vehicle: saline
[18] = dose: 400.0 mg/kg/injection, schedule: Q01DX001 (ip), vehicle: saline
[19] = dose: 6.25 mg/kg/injection, schedule: Q01DX009 (ip), vehicle: saline with Tween-80
[20] = dose: 12.5 mg/kg/injection, schedule: Q01DX009 (ip), vehicle: saline with Tween-80
[21] = dose: 100.0 mg/kg/injection, schedule: Q04DX003 (ip), vehicle: saline
[22] = dose: 200.0 mg/kg/injection, schedule: Q04DX003 (ip), vehicle: saline
[23] = dose: 50.0 mg/kg/injection, schedule: Q01DX009 (ip), vehicle: Klucel (hydroxypropylcellulose) (HPC)
[24] = dose: 200.0 mg/kg/injection, schedule: Q01DX009 (ip), vehicle: saline
[25] = dose: 100.0 mg/kg/injection, schedule: Q04DX003 (ip), vehicle: saline with Tween-80

Measured: T/C

Cc1ccc([N+](=O)[O-])cc1NC(=O)Cc1ccccc1
inactive: [1] 101 % of control | [2] 93 % of control | [3] 93 % of control

CC(C)CC(NC(=O)OC(C)(C)C)C(=O)O (stereo unspecified)
inactive: [4] 104 % of control | [5] 93 % of control | [6] 98 % of control

Cc1ccc(S(=O)(=O)NCCCOS(=O)(=O)c2ccc(C)cc2)cc1
inactive: [7] 104 % of control | [8] 97 % of control | [9] 93 % of control | dose: 200.0 mg/kg/injection, schedule: Q04DX003 (ip), vehicle: acetone 95 % of control | [10] 93 % of control | dose: 400.0 mg/kg/injection, schedule: Q04DX003 (ip), vehicle: acetone 94 % of control

OCCCC1CCCCN1 (stereo unspecified)
inactive: dose: 25.0 mg/kg/injection, schedule: Q01DX009 (ip), vehicle: saline 100 % of control | [11] 96 % of control | [12] 88 % of control | [8] 103 % of control

CN(C)c1ccc(C2SCSCS2)cc1
inactive: [13] 97 % of control | [14] 101 % of control | [15] 95 % of control

Clc1ccc2noc(-c3ccccc3)c2c1
inactive: [16] 104 % of control | [7] 95 % of control | [13] 100 % of control | [17] 100 % of control | [9] 102 % of control | [14] 94 % of control | [18] 98 % of control | [10] 95 % of control | [15] 90 % of control

Clc1nc(Cl)c(Cl)[nH]1
inactive: [19] 94 % of control | [20] 93 % of control

COc1cc(CCN2CCN(c3cc(C)ccc3Cl)CC2)cc(OC)c1OC
inactive: [4] 93 % of control | [5] 97 % of control | [6] 97 % of control

O=P(Nc1ccc(Cl)c(Cl)c1)(N1CCCCC1)N1CCCCC1
inactive: [13] 93 % of control | [14] 91 % of control | [15] 93 % of control

Cc1cc(Cl)c2c(Cl)ccc(Cl)c2n1
inactive: [16] 98 % of control | [17] 96 % of control | [18] 98 % of control

O=NN(CCCl)C(=O)C1CCC(C(=O)N(CCCl)N=O)CC1 (stereo unspecified)
inactive: dose: 0.25 mg/kg/injection, schedule: Q01DX001 (ip), vehicle: carboxymethylcellulose (CMC) 108 % of control | dose: 0.5 mg/kg/injection, schedule: Q01DX001 (ip), vehicle: carboxymethylcellulose (CMC) 117 % of control | dose: 10.0 mg/kg/injection, schedule: Q01DX001 (ip), vehicle: carboxymethylcellulose (CMC) 124 % of control | dose: 15.0 mg/kg/injection, schedule: Q01DX001 (ip), vehicle: carboxymethylcellulose (CMC) 123 % of control | dose: 30.0 mg/kg/injection, schedule: Q01DX001 (ip), vehicle: carboxymethylcellulose (CMC) 118 % of control | dose: 62.0 mg/kg/injection, schedule: Q01DX001 (ip), vehicle: carboxymethylcellulose (CMC) 87 % of control

CCOC(=O)c1cnc(SC)nc1Nc1ccc(C)cc1C
inactive: [7] 96 % of control | [9] 101 % of control | [10] 109 % of control

CCN(CC)CCOC(=O)C1C2CC3OC(=O)C1C3C2 (stereo unspecified)
inactive: [21] 108 % of control | [22] 95 % of control | dose: 400.0 mg/kg/injection, schedule: Q04DX003 (ip), vehicle: saline 92 % of control

CCN(C(=O)c1ccc2c3c(ccc(C(=O)N(CC)c4ccccc4)c13)CC2)c1ccccc1
inactive: [16] 104 % of control | [17] 104 % of control | [18] 95 % of control

Nc1cccc(OCCCOc2cccc([N+](=O)[O-])c2)c1
inactive: [23] 106 % of control | [7] 90 % of control | [9] 90 % of control

[C-]#[N+]C([N+]#[C-])=S(C)C
inactive: [11] 102 % of control | [12] 109 % of control | [21] 103 % of control | [24] 105 % of control | [22] 101 % of control

Brc1cc(Br)c(-c2c(Br)cc(Br)cc2Br)c(Br)c1
inactive: [23] 111 % of control | [7] 93 % of control | [13] 108 % of control | [9] 101 % of control | [14] 105 % of control | [10] 98 % of control | [15] 95 % of control

CNC(=O)Nc1ccc(Nc2ccccc2)cc1
inactive: [1] 105 % of control | [2] 97 % of control | [3] 91 % of control

COC(=O)Nc1cccc(C)c1C
inactive: dose: 100.0 mg/kg/injection, schedule: Q04DX003 (ip), vehicle: other 103 % of control | dose: 200.0 mg/kg/injection, schedule: Q04DX003 (ip), vehicle: other 102 % of control | dose: 400.0 mg/kg/injection, schedule: Q04DX003 (ip), vehicle: other 108 % of control

CCOC(=O)C1(O)CSC(O)(C(=O)OCC)CS1 (stereo unspecified)
inactive: [4] 101 % of control | [5] 97 % of control | [6] 92 % of control

C=Cc1ccc(O)cc1
inactive: [16] 103 % of control | [17] 106 % of control | [18] 98 % of control

O=C(O)c1ccc(N2C(=O)C=CC2=O)cc1 (tested in a mixture with another compound)
inactive: dose: 12.5 mg/kg/injection, schedule: Q01DX009 (ip), vehicle: acetone 90 % of control

CCCCCCCCCCCCCCCCCCNC(=O)Cc1ccc(N(CCCl)CCCl)cc1
inactive: [7] 94 % of control | [9] 95 % of control

CC1(O)OC(n2c(Br)nc3c(N)ncnc32)C(O)C1O (stereo unspecified)
inactive: dose: 100.0 mg/kg/injection, schedule: Q01DX001 (ip), vehicle: carboxymethylcellulose (CMC) 103 % of control | dose: 200.0 mg/kg/injection, schedule: Q01DX001 (ip), vehicle: carboxymethylcellulose (CMC) 101 % of control | dose: 400.0 mg/kg/injection, schedule: Q01DX001 (ip), vehicle: carboxymethylcellulose (CMC) 95 % of control

CC1CCC(C)C1NC1=NCCO1 (stereo unspecified)
inactive: [19] 90 % of control | [20] 95 % of control | dose: 25.0 mg/kg/injection, schedule: Q01DX009 (ip), vehicle: saline with Tween-80 90 % of control | dose: 25.0 mg/kg/injection, schedule: Q04DX003 (ip), vehicle: saline with Tween-80 93 % of control | dose: 50.0 mg/kg/injection, schedule: Q04DX003 (ip), vehicle: saline with Tween-80 93 % of control | [25] 87 % of control

CCN(CC)c1ccc2c(c1)C(O)c1ccccc1-2 (stereo unspecified)
inactive: [25] 94 % of control and 108 % of control | dose: 200.0 mg/kg/injection, schedule: Q04DX003 (ip), vehicle: saline with Tween-80 104 % of control and 105 % of control | dose: 400.0 mg/kg/injection, schedule: Q04DX003 (ip), vehicle: saline with Tween-80 102 % of control and 108 % of control

C=CC(=O)NCNC(=O)C=C
inactive: dose: 50.0 mg/kg/injection, schedule: Q04DX003 (ip), vehicle: carboxymethylcellulose (CMC) 100 % of control | [16] 97 % of control | dose: 100.0 mg/kg/injection, schedule: Q04DX003 (ip), vehicle: carboxymethylcellulose (CMC) 110 % of control | [17] 101 % of control | [18] 113 % of control

CC[Si](CC)(CC)O[Si](CC)(CC)CC
inactive: dose: 100.0 mg/kg/injection, schedule: Q04DX002 (ip), vehicle: saline 102 % of control | dose: 200.0 mg/kg/injection, schedule: Q04DX002 (ip), vehicle: saline 94 % of control | dose: 400.0 mg/kg/injection, schedule: Q04DX002 (ip), vehicle: saline 97 % of control

COC(=O)C1OC1C(=O)OC (stereo unspecified)
inactive: [7] 91 % of control | [12] 101 % of control | [9] 96 % of control | [24] 100 % of control | [10] 102 % of control | dose: 400.0 mg/kg/injection, schedule: Q01DX009 (ip), vehicle: saline 92 % of control

Cc1cc(C(=O)CCC(=O)O)c(C)s1
inactive: dose: 100.0 mg/kg/injection, schedule: Q01DX009 (ip), vehicle: gum acacia 97 % of control | dose: 100.0 mg/kg/injection, schedule: Q04DX003 (ip), vehicle: gum acacia 102 % of control | dose: 200.0 mg/kg/injection, schedule: Q01DX009 (ip), vehicle: gum acacia 90 % of control | dose: 200.0 mg/kg/injection, schedule: Q04DX003 (ip), vehicle: gum acacia 96 % of control | dose: 400.0 mg/kg/injection, schedule: Q01DX009 (ip), vehicle: gum acacia 101 % of control | dose: 400.0 mg/kg/injection, schedule: Q04DX003 (ip), vehicle: gum acacia 101 % of control
